Biological target: Dipeptidyl peptidase 4 (Homo sapiens, UniProt P27487)
Sequence (P27487 whole entry): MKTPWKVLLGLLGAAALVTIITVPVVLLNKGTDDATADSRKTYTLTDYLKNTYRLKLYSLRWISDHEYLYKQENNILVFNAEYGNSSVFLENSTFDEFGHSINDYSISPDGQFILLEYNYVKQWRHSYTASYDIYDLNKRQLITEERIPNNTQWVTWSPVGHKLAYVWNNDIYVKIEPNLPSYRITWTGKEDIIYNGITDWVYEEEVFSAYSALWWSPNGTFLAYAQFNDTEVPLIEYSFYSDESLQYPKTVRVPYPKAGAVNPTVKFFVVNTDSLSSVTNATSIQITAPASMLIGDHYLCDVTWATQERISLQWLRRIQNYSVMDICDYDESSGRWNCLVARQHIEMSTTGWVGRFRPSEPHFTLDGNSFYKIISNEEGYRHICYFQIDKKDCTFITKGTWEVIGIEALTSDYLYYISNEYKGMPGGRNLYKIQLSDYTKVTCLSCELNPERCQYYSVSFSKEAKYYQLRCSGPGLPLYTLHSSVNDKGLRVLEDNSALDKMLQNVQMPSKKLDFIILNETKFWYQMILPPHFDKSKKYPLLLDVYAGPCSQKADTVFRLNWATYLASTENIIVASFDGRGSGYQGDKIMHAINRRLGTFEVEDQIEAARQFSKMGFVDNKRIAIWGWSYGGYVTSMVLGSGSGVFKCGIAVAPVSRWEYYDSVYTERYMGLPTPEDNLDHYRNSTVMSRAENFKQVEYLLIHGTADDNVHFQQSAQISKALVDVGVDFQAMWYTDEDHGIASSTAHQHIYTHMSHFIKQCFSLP
Description: Inhibition of human DPP4 expressed in baculovirus system

| IC50 [µM] | SMILES |
| --- | --- |
| 230 | N[C@H](C(=O)N1CCc2ccccc2C1)C1CCCCC1 |
| 390 | N#C[C@@H]1CCCN1C(=O)CN1CCc2ccccc2C1 |
